Measurements published in PMC9695592, “Phenotypic Evaluation of Nucleoside Analogues against Trypanosoma cruzi Infection: In Vitro and In Vivo Approaches” (Molecules, 2022).
pEC50: −log10 of the molar value.

Key:
[1] = tested on: bloodstream trypomastigotes of T. cruzi (Y strain); test: Activity against bloodstream trypomastigotes, light microscopy counting; type: cell-based; details: Trypanosoma cruzi, 24 h of compound incubation, 95% confidence interval in brackets; for pEC50: read-out: Activity upon Bloodstream Forms EC50; for EC90: read-out: Activity upon Bloodstream Forms EC90
Protocol: (§1) Bloodstream trypomastigotes of the Y strain (DTU II) were obtained by cardiac puncture of infected Swiss Webster mice on the parasitemia peak to perform drug sensitivity assays. Trypomastigote forms of the Tulahuen-β gal strain were collected from the supernatant of previously infected L929 cell cultures (host/parasite cell ratio 10:1). The intracellular forms T. cruzi were studied by the infection of L929 and H9C2 (2D and 3D) cell cultures infected for 48 and 24 h with trypomastigotes of Tulahuen-β gal and Y strains, respectively. The Leishmania mexicana-Cas9 T7 strain (LmexCas9) was derived from L. mexicana WT promastigotes by expression of the Streptococcus pyogenes Cas9 nuclease gene ‘Cas9′ and maintained on 32 μg/mL hygromycin [51]. This strain and the derived strains Cas9^ΔNT1 and Cas9^ΔNT1+TcrNT2 were cultured in HOMEM medium supplemented with 10% of FBS and 1% Penicillin-Streptomycin antibiotic in unvented flasks at 25 °C [52]. The Cas9^ΔNT1 strain is identical to Cas9 except that the LmexNT1.1/NT1.2 locus encoding the L. mexicana adenosine/ pyrimidine transporters was excised using Cas9 [17, 40]. Cas9^ΔNT1+TcrNT2 is the further modification of that strain by the expression of the T. cruzi nucleoside transporter 2 (TcrNT2) gene in it, using the vector pNUS-HcN [53]. Appropriate antibiotics were added for the selection and maintenance of transfectants.
To analyze the compound activity against bloodstream trypomastigotes of T. cruzi (Y strain), […] of parasite were added in 96-well microtiter plates and incubated for 2 or for 24 h at 37 °C in RPMI culture medium in the presence or absence of each compound (up to 30 µM). The death rates were quantified by light microscopy using a Neubauer chamber to determine the EC50 [49, 58]. The data results from two independent experiments performed in duplicate were obtained.

[2] = tested on: intracellular forms of T. cruzi (Y strain) in 3D H9C2; test: Activity against T. cruzi (Y strain) infection of H9C2 spheroids (3D); type: cell-based, Trypanosoma cruzi; details: 10 µM, seven days of incubation, 95% confidence interval in brackets
Source text: L929 cell lines were used to evaluate the effect of the nucleoside derivatives on the cellular viability of mammalian host cells and to assess their activity against intracellular forms of T. cruzi (Tulahuen strain expressing E. coli β-galactosidase gene, DTU VI) as reported. 2D and 3D culture systems of rat cardiomyoblast cell lines (H9C2(2-1)) were used to evaluate cardiotoxicity and to test the derivatives’ activity on intracellular forms (Y strain, DTU II). In all assays, the cell cultures were maintained at 37 °C under an atmosphere of 5% CO2.
as §1
3D cultures of H9C2 cells were obtained as described, and 24 h after plating, the spheroids were infected (or not, control) with bloodstream trypomastigotes of T. cruzi (strain Y), using 20 parasites per host cell. After 24 h, infected spheroids were incubated with 10 µM of the tested compounds for seven days, and then the spheroids were transferred one by one to an Eppendorf tube, with the aid of a pestle they were mechanically macerated following an established protocol with minor adaptations. The parasite load was quantified by light microscopy and qPCR [54], and the results were expressed as % of parasite death. The data results from two independent experiments performed in at least duplicate.

[3] = tested on: T. cruzi (Y strain) in male Swiss mice; test: Mouse model of acute T. cruzi infection (Y strain); type: in vivo; details: for protection against loss of weight induced by acute infection: 25 mg/kg/day oral, 5 days; for parasite DNA amplification in blood (qPCR): 77 dpi, heart puncture, derivatives 25 mg/kg/day, Bz 100 mg/kg/day, 5 days oral, limit of detection 0.47 eq par/mL; for reduction of parasitemia: gavage once a day, 5 consecutive days, 25 mg/kg/day, from parasitemia onset, p < 0.05
Protocol: Thus, a proof-of-concept study was performed in T. cruzi-infected mice. The infected animals were treated (gavage, once a day) for 5 consecutive days with the derivatives (25 mg/kg/day) or Bz (100 mg/kg/day), starting drug administration at the parasitemia onset, usually on day 5 dpi, following doses and protocols already established for the other nucleoside derivatives.
The synthesis and characterization of FH11706, FH10714 [46] and FH8513 [19] were previously reported. Benznidazole (Bz) was purchased from Laboratório Farmacêutico do Estado de Pernambuco (Brazil). […] For in vivo assays, Bz was formulated using 3% Tween 80 in distilled water and the nucleoside analogues in 10% (v/v) EtOH, with 1.1 mM aqueous citrate buffer pH 3.2 and dosed according to animal body weight.
Male Swiss Webster mice (18−20 g; 4−5 weeks of age) were obtained from the Institute of Sciences and Technologies in Biomodels (ICTB-FIOCRUZ), housed with a maximum of 5 animals per cage and kept in a specific pathogen-free (SPF) room at 20−24 °C under a 12 h light and 12 h dark cycle. All animals received sterilized water and food ad libitum. The animals were acclimatized for 7 days before the experiments. To detect possible toxic events, nucleoside analogues and Bz were orally given to non-infected Swiss male mice (n = 2) for 5 consecutive days, with a fixed dose of 50 mg/kg (0.1 mL). On day 5, all animals were euthanized to inspect toxic and subtoxic symptoms. For a proof-of-concept study, animals were infected by i.p. administration of 10^4 bloodstream trypomastigotes (Y strain), and drug administration started at the onset of parasitemia (6 dpi), only using mice with detectable parasitemia. Control mice groups were age-matched and housed under identical conditions. The following experimental groups were used (3 mice per group): untreated (infected vehicle-treated control) and treated (infected and treated with derivatives or with benznidazole). The derivatives and Bz were given orally (gavage) for five consecutive days at 25 mg/kg and 100 mg/kg, respectively, once a day. Parasitemia levels in T. cruzi assays were individually checked by light microscopic counting of parasites in 5 μL of blood, as described. For blood qPCR analysis, 500 µL of blood was diluted in a 1:2 volume of guanidine solution and heated for 60 s in boiling water, followed by DNA purification using High Pure PCR Template Preparation Kit (Roche Applied Science) and quantitative real-time multiplex PCR assays. TaqMan probes were used for quantification of both T. cruzi satellite nuclear DNA and internal amplification control (IAC), as described in Duffy et al. (2013), using the following primer and prober sets: Cruzi1 5′-[…]-3′ (750 nM), Cruzi2 5′-[…]-3′ (750 nM), Cruzi3 FAM-5′-CACACACTGGACACCAA-3′-NFQ-MGB (50 nM), IAC Fw 5′-[…]-3′ (100 nM), IAC Rv 5′-[…]-3′ (100 nM) and IAC Tq 5′-VIC-AGCATCTGTTCTTGAAGGT-NFQ-MGB-3′ (50 nM). The cycling conditions were a first step of 10 min at 95 °C, followed by 40 cycles at 95 °C for 15 s and 58 °C for 1 min. The amplifications were carried out in a Quantstudio 3 real-time PCR system (Applied Biosystems), with the threshold set at 0.02 in all runs. Standard curves were constructed for absolute quantification through the serial dilution of total DNA, ranging from 10^5 parasite equivalent to 1 parasite equivalent per mL of blood, obtained with a negative blood sample in guanidine-EDTA. Parasite load was expressed as equivalent of parasite DNA per mL of blood.

SMILES | pEC50 [1] | EC90 [1] [µM] | % of Death Rate by Light Microscopy Quantification 3D [2] | % of Death Rate by qPCR 3D [2] | protection against loss of weight induced by acute infection [3] | parasite DNA amplification in blood (qPCR) [3] [eq par/mL] | reduction of parasitemia [3] [%] | sterile (parasitological) cure in mice ([3]; oral once a day for 5 days (derivatives 25 mg/kg), blood qPCR)
Nc1ncnc2c1c(-c1ccc(Cl)c(Cl)c1)cn2[C@@H]1O[C@H](CO)C[C@H]1O [FH8513, 7-(3,4-dichlorophenyl)-3′-deoxytubercidin] | 5.23 | 16.7 | 83.8 (67.5 to 100) % | 94 (90 to 98) % | strongly protected | 0.287 ± 0.017 | 99.48 | –
Nc1ncnc2c1c(-c1ccc(Cl)c(F)c1)cn2[C@@H]1O[C@H](CO)[C@@H](O)[C@H]1O [FH10714, 7-(3-fluoro,4-chlorophenyl)tubercidin] | 4.87 | > 30 | 93.5 (93.46 to 93.54) % | 67 (38 to 96) % | – | 0.046 ± 0.038 | 99.58 | incapable to promote a parasitological cure
O=C(Cn1ccnc1[N+](=O)[O-])NCc1ccccc1 [Bz, Benznidazole, reference compound] | 5.16 | 19.6 | 98.4 (98.1 to 98.7) % | 100% | – | 0.187 ± 0.082 | – | –
Nc1ncnc2c1c(-c1ccc(F)c(F)c1)cn2[C@@H]1O[C@H](CO)[C@@H](O)[C@H]1O [FH11706, 7-(3,4-Difluorophenyl)tubercidin] | 4.75 | > 30 | 91.6 (86.2 to 97) % | 85 (79 to 91) % | strongly protected | 0.038 ± 0.016 | 98.4 | –
